# Non-standard residues stand in square brackets, D forms with d. Residues, ends and D or L forms follow the SMILES beside them. Nle = CCCC[C@H](N)C(=O)O; βAla = NCCC(=O)O
# Experiments:
# [1] = target: BB2 receptor (Homo sapiens, UniProt P30550); details: from Smart (1998); cited from earlier work
# [2] = target: BB1 receptor (Homo sapiens, UniProt P28336); details: from Smart (1998); cited from earlier work
# [3] = test system: cerebellar granule cells; test: Glutamate-induced excitotoxicity in cerebellar granule cells; assay type: cell-based
# Excerpt: However, in the cerebellar granule cells [D-Phe^6, βAla^11, Phe^13, Nle^14]Bombesin(6-14) had no effect on glutamate-induced excitotoxicity.
# [4] = test system: hippocampal neurones; test: Neurotoxicity assay (MTT cell survival) in primary hippocampal cell culture; assay type: cell-based, rat; details: sub-maximal neurotoxicity by Mg-free Locke's solution with glycine and histamine, MTT 24 h after insult
# Protocol: Hippocampi were isolated from embryonic Sprague Dawley rats (gestational age 17.5 days; Charles River), incubated with 0.08% (w/v) trypsin, and dissociated in Neurobasal medium containing 10% heat-inactivated fetal calf serum (Skaper et al.(1990) Methods in Neurosciences, Vol. 2 (Conn P. M., ed), pp. 17-33 Academic Press, San Diego). Cells were pelleted by centrifugation (200 g, 5 min) and resuspended in Neurobasal medium containing B27 supplements (with antioxidants), 25 μM glutamate, 1 mM sodium pyruvate, 2 mM L-glutamine, 50 U/ml penicillin, and 50 μg/ml streptomycin. The cell suspension was plated onto poly-D-lysine (10 μg/ml) coated 48-well culture plates (Nunc), at a density of 4.5×10^4 cells per cm^2. Cultures were maintained at 37° C. in a humidified atmosphere of 5% CO2-95% air. […]
# Cultures were washed once with Locke's solution (pH 7.0-7.4) (Skaper et al. (1990) supra) with or without 1 mM magnesium chloride (MgCl2). […] Cell survival was quantified 24 h after the insult by a colorimetric reaction with 3-(4,5-dimethylthiazol-2-yl)-2,5-diphenyltetrazolium bromide (MTT) (Mosmann (1983) J. Immunol. Methods 65:55-63; Manthorpe et al. (1986) Dev. Brain Res. 25:191-198; Skaper et al., (1990) supra). Absolute MTT values obtained were normalized and expressed as a percentage of sham-treated sister cultures (defined as 100%).
# [5] = test system: organotypic hippocampal slice cultures; test: Oxygen/glucose deprivation model in organotypic hippocampal slice cultures; assay type: cell-based
# [6] = target: T1, endogenous human BRS-3 in NCI-N417 cells (Homo sapiens, UniProt P32247); test: Agonist pharmacology, FLIPR intracellular calcium (Fluo-3AM) in NCI-N417 cells; assay type: cell-based
# T1 construct: Agonist Pharmacology at the Endogenous Human BRS-3 in NCI-N417 Cells; endogenous in cells; host or cells: NCI-N417 cells
# T1 sequence (P32247 1-399): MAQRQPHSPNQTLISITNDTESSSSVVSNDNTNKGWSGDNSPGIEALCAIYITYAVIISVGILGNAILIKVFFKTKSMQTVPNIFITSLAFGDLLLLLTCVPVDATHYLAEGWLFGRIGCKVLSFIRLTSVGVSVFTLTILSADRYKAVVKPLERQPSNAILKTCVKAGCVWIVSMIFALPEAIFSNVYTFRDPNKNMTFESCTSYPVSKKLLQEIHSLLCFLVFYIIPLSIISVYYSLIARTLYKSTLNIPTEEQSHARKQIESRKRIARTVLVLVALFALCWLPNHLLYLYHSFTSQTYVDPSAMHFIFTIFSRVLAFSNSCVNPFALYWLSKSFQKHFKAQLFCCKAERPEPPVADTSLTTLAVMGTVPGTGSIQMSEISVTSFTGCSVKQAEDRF
# Protocol: Agonist Pharmacology at the Endogenous Human BRS-3 in NCI-N417 Cells
# NCI-N417 cells were seeded into Costar 96 well black walled plates (30,000 cells per well), cultured overnight in RPMI 1640 medium containing 10% foetal calf serum and 1% L-glutamine, and then loaded with the cytoplasmic calcium indicator Fluo-3AM (4 μM) in the presence of 2.5 mM probenecid at 37° C. for 60 min. The cells were then washed 4× with, and finally resuspended in, Tyrode's medium containing 2.5 mM probenecid. Fluorescence was then monitored using a FLIPR (λEX=488 nm, λEM=540 nm) before and after the addition of various ligands (10 pM-10 μM), as described previously (Smart et al (1999). Br. J. Pharmacol. 128:1-4).
# [7] = target: T2, BRS3 (Homo sapiens, UniProt P32247); details: background statement, in words; cited from earlier work
# T2 sequence (P32247 1-399): T1 sequence (P32247 1-399)
# BB2 receptor, sequence (P30550 whole entry): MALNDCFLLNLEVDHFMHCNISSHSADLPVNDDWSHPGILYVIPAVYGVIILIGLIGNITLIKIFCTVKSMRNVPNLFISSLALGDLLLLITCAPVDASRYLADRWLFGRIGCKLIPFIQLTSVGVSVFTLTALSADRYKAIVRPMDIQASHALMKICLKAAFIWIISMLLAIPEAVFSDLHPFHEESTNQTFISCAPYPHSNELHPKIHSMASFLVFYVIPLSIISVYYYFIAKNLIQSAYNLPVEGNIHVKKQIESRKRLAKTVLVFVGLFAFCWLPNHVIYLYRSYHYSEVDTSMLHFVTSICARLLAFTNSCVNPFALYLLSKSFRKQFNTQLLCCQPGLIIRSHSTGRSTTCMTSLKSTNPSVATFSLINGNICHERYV
# BB1 receptor, sequence (P28336 whole entry): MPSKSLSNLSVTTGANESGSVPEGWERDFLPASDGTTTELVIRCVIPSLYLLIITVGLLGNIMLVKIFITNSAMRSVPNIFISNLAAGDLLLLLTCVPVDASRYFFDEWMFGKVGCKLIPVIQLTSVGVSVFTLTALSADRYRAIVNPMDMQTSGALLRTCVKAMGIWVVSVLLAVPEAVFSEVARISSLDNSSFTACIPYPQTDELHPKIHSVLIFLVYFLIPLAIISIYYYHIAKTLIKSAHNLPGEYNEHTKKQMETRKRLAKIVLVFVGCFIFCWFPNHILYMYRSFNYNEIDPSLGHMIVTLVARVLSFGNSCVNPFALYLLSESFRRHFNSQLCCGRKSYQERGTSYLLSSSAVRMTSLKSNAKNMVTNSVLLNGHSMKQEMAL
Compound,activity at the BB2 receptor [1],affinity at the BB1 receptor [2] [nM],effect on glutamate-induced excitotoxicity [3],pEC50 for inhibition of damage [4],neuroprotection [5],EC50 [6] [µM],"Efficacy ([6]; calcium mobilisation, FLIPR, NCI-N417 cells, efficacy in words)",affinity at BRS3 [7]
CC(C)c1cccc(C(C)C)c1NC(=O)N[C@@](C)(Cc1c[nH]c2ccccc12)C(=O)NCC1(c2ccccn2)CCCCC1 [PD 165929],inactive,7.6,,,,,,
"CCCC[C@H](NC(=O)[C@H](Cc1ccccc1)NC(=O)[C@H](Cc1c[nH]cn1)NC(=O)CCNC(=O)[C@@H](NC(=O)[C@H](C)NC(=O)[C@H](Cc1c[nH]c2ccccc12)NC(=O)[C@H](CCC(N)=O)NC(=O)[C@H](N)Cc1ccccc1)C(C)C)C(N)=O [[D-Phe^6, βAla^11, Phe^13, Nle^14]Bombesin(6-14)] (H-[dF]QWAV[βAla]HF[Nle]-NH2; N-terminus and C-terminus assumed)",,,no effect,7.3±0.1,neuroprotective,0.0132,full,low nM affinity

# — US20040023862A1, “Uses of bombesin receptor 3” (SmithKline Beedham p. l. c., priority 2000, published 2004)
